Drawing on PubChem BioAssay (NCI), this text covers TGI for seven molecules.

Some test systems named below: MDA-MB-435; SNB-75 CNS; SF-539 CNS; HCT-116 colon; EKVX NSCLC; SF-268 CNS; HL-60(TB) leukemia; HOP-62 NSCLC; OVCAR-3 ovarian; NCI-H226 lung; T-47D breast; HCC-2998 colon; NCI-H23 lung; RXF 393 renal; M14 melanoma; MDA-N; 786-0 renal; CAKI-1 renal; OVCAR-5 ovarian; SNB-19 CNS.
Holding throughout (assay): inhibition of tumour cell growth, NCI panel, 48 h

The structures appear in SMILES notation.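 Compound exposure: 48 hours, 5 concentrations, 96-well plates. TGI: total growth inhibition.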

`Cc1ccc(C)c(NC(=O)/C(=N\N)C(c2cnc3ccc([N+](=O)[O-])cc3n2)[N+](=O)[O-])c1` (stereo not drawn): the TGI in the assay with MDA-MB-435, in the assay on SNB-75 CNS, in the assay with SF-539 CNS, in the assay on HCT-116 colon, with EKVX NSCLC and in the assay on SF-268 CNS was above 100 µM each time. The TGI in the assay on HL-60(TB) leukemia, with HOP-62 NSCLC, with OVCAR-3 ovarian, in the assay with NCI-H226 lung, in the assay on T-47D breast and in the assay on HCC-2998 colon was above 100 µM throughout. The TGI in the assay on NCI-H23 lung, with RXF 393 renal, in the assay with M14 melanoma, in the assay on MDA-N, in the assay with 786-0 renal and with CAKI-1 renal was above 100 µM throughout. The TGI with OVCAR-5 ovarian was above 100 µM.

On to `O=CN1CCN(C(=O)c2ccc(Cl)cc2)C1=S`, for which the TGI came to 28 µM in the assay with MDA-MB-435; 36.8 µM with SNB-75 CNS; 61.7 µM with SF-539 CNS; 34.8 µM with HCT-116 colon; 29 µM in the assay on EKVX NSCLC; 35.9 µM in the assay with SF-268 CNS. The TGI in the assay on HL-60(TB) leukemia was 44.1 µM; in the assay on HOP-62 NSCLC, 44 µM; in the assay with OVCAR-3 ovarian, 28.7 µM; in the assay with NCI-H226 lung, 80 µM; with T-47D breast, 36.4 µM; in the assay on HCC-2998 colon, 33.9 µM. Besides, the TGI in the assay with SNB-19 CNS amounted to 29.5 µM; in the assay with NCI-H23 lung, 53.6 µM; with RXF 393 renal it was 31 µM; with M14 melanoma, 27.7 µM; with MDA-N it was 31.5 µM; with 786-0 renal, 19.7 µM. Also, the results for the TGI with CAKI-1 renal and in the assay with OVCAR-5 ovarian were 27 µM and 35.6 µM, respectively.

Consider `CC(C)CNC(=O)c1c(NC(=O)c2ccccc2)sc2[nH]c(=O)n(-c3ccccc3)c(=O)c12`, for which the TGI is above 100 µM with MDA-MB-435; 48.3 µM in the assay on SNB-75 CNS; above 84 µM in the assay on SF-539 CNS; above 100 µM in the assay with HCT-116 colon; above 100 µM with EKVX NSCLC; above 100 µM in the assay with SF-268 CNS. Moreover, the TGI in the assay on HL-60(TB) leukemia was above 100 µM; in the assay with HOP-62 NSCLC it was 49.1 µM; in the assay with OVCAR-3 ovarian it was above 100 µM; with NCI-H226 lung, above 100 µM; with T-47D breast, above 100 µM; with HCC-2998 colon, above 100 µM. For the same molecule, the TGI is 75.8 µM with SNB-19 CNS; above 100 µM with NCI-H23 lung; 40 µM in the assay on RXF 393 renal; above 100 µM in the assay on M14 melanoma; above 100 µM in the assay with MDA-N; 53.6 µM in the assay on 786-0 renal. The TGI in the assay on CAKI-1 renal is above 80.9 µM; in the assay with OVCAR-5 ovarian, above 100 µM.

For the molecule `[O-]/N=N\c1on[n+](CCc2ccccc2)c1Cc1c(/N=N/[O-])on[n+]1CCc1ccccc1`, the TGI with MDA-MB-435 is above 100 µM; with SNB-75 CNS, 40.2 µM; with SF-539 CNS, 37.1 µM; in the assay on HCT-116 colon, above 100 µM; with EKVX NSCLC, above 100 µM; in the assay with SF-268 CNS, above 100 µM. Further, the TGI in the assay on HL-60(TB) leukemia is above 100 µM; in the assay with HOP-62 NSCLC, 48.3 µM; in the assay on OVCAR-3 ovarian it was 39.8 µM; with NCI-H226 lung it was 98.3 µM; with T-47D breast it was above 100 µM; in the assay with HCC-2998 colon, above 100 µM. Also, the TGI with SNB-19 CNS was 93.2 µM; in the assay with NCI-H23 lung it was 61.3 µM; with RXF 393 renal it was above 100 µM; in the assay on M14 melanoma, above 100 µM; in the assay on MDA-N it was above 100 µM; in the assay with 786-0 renal, 47.5 µM. Also, the TGI in the assay with CAKI-1 renal and in the assay on OVCAR-5 ovarian was above 100 µM each time.

Regarding `O=C1CCCC(=O)N1n1c(Cc2ccc(Cl)cc2)n[nH]c1=O`, the TGI in the assay on MDA-MB-435, in the assay with SNB-75 CNS, in the assay on SF-539 CNS, in the assay with HCT-116 colon, with EKVX NSCLC and in the assay on SF-268 CNS was above 100 µM each time. The TGI in the assay with HL-60(TB) leukemia, in the assay on HOP-62 NSCLC, in the assay on OVCAR-3 ovarian, in the assay on NCI-H226 lung, in the assay with T-47D breast and in the assay with HCC-2998 colon was above 100 µM each time. Also, the TGI in the assay with SNB-19 CNS, in the assay with NCI-H23 lung, with RXF 393 renal, in the assay on M14 melanoma, in the assay on MDA-N and in the assay on 786-0 renal was above 100 µM each time. In addition, the TGI in the assay with CAKI-1 renal and with OVCAR-5 ovarian was above 100 µM each time.

For the molecule `c1csc(-c2ccc(-c3ccsc3)s2)c1`, the TGI in the assay with MDA-MB-435, in the assay with SNB-75 CNS, with SF-539 CNS, in the assay on HCT-116 colon, in the assay on EKVX NSCLC and in the assay on SF-268 CNS was above 100 µM in each case. Also, the TGI in the assay on HL-60(TB) leukemia, in the assay with HOP-62 NSCLC, in the assay with NCI-H226 lung, with T-47D breast, in the assay with HCC-2998 colon and in the assay on SNB-19 CNS was above 100 µM throughout. The TGI in the assay with NCI-H23 lung, in the assay on RXF 393 renal, with M14 melanoma, in the assay on MDA-N, in the assay with 786-0 renal and in the assay on CAKI-1 renal was above 100 µM in each case. This molecule gave a TGI with OVCAR-5 ovarian above 100 µM.

Regarding `C=CCC1(O)C(=O)OC2C(O)COC21O` (stereo not drawn), the TGI with MDA-MB-435, in the assay with SNB-75 CNS, in the assay with SF-539 CNS, in the assay on HCT-116 colon, in the assay on EKVX NSCLC and with SF-268 CNS was above 100 µM throughout. Besides, the TGI in the assay on HL-60(TB) leukemia, with HOP-62 NSCLC, in the assay with OVCAR-3 ovarian, with NCI-H226 lung, in the assay with T-47D breast and with HCC-2998 colon was above 100 µM each time. For the same molecule, the TGI in the assay with SNB-19 CNS, in the assay on NCI-H23 lung, in the assay with RXF 393 renal, in the assay with M14 melanoma, in the assay with MDA-N and in the assay on 786-0 renal was above 100 µM each time. Moreover, the TGI in the assay with CAKI-1 renal and in the assay with OVCAR-5 ovarian was above 100 µM each time.
